In PubChem BioAssay (NCI):
Where “and” joins values, the source holds several entries; their conditions need not be identical. Identical values can stand only once.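 Assay format: 96-well plates, 48-hour exposure. At the GI50, growth is halved. TGI marks complete inhibition of growth.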

Experiments:
Experiment in all cases: growth of human tumour cells (NCI), 48 h
PC-3 prostate = test system: PC-3 prostate
MDA-MB-231 breast = test system: MDA-MB-231 breast
CAKI-1 renal = test system: CAKI-1 renal
DU-145 prostate = test system: DU-145 prostate
MDA-N = test system: MDA-N
MCF7 breast = test system: MCF7 breast
NCI/ADR-RES ovarian = test system: NCI/ADR-RES ovarian
HS 578T breast = test system: HS 578T breast
MDA-MB-435 = test system: MDA-MB-435
DMS 114 small cell lung = test system: DMS 114 small cell lung
M19-MEL melanoma = test system: M19-MEL melanoma
XF 498 CNS = test system: XF 498 CNS

`COc1cc2c(cc1OC)-c1cc3cc(OC)c(OC)cc3c(C)[n+]1CC2` (tested in a mixture with another compound) was tested, and the TGI (PC-3 prostate) was greater than 100 µM, the TGI (MDA-MB-231 breast) was greater than 100 µM and the TGI (CAKI-1 renal) was greater than 100 µM. For the same compound, the TGI (DU-145 prostate) was greater than 100 µM, the TGI (MDA-N) was greater than 100 µM and the TGI (MCF7 breast) was greater than 100 µM. It also gave a TGI (NCI/ADR-RES ovarian) greater than 100 µM, a TGI (HS 578T breast) greater than 100 µM and a TGI (MDA-MB-435) greater than 100 µM.
`COc1cccc2c1C(=O)c1c(O)c3c(c(O)c1C2=O)CC(O)(C(C)=O)CC3OC1OC(COC(C)=O)C(OC(C)=O)C(OC(C)=O)C1OC(C)=O` (stereo not given) was tested, and the TGI (PC-3 prostate) was greater than 100 µM, the TGI (MDA-MB-231 breast) was 63.7 µM and the TGI (DU-145 prostate) was greater than 100 µM. It also gave a TGI (MCF7 breast) greater than 100 µM, a TGI (NCI/ADR-RES ovarian) greater than 100 µM and a TGI (HS 578T breast) of 64.8 µM. It also gave a TGI (MDA-MB-435) greater than 100 µM.
`Oc1ccccc1CNCc1ccccc1O` was tested, and the TGI (PC-3 prostate) was greater than 100 µM, the TGI (MDA-MB-231 breast) was greater than 100 µM and the TGI (CAKI-1 renal) was greater than 100 µM. The TGI (DU-145 prostate) was greater than 100 µM, the TGI (MDA-N) was greater than 100 µM and the TGI (MCF7 breast) was greater than 100 µM. The TGI (NCI/ADR-RES ovarian) was greater than 100 µM, the TGI (HS 578T breast) was greater than 100 µM and the TGI (MDA-MB-435) was greater than 100 µM.
Work on `O=C(N/N=C/c1cc(Cl)cc(Cl)c1[O-])c1ccccc1O.O=C(N/N=C/c1cc(Cl)cc(Cl)c1[O-])c1ccccc1O.[Cu+2]` yielded a TGI (CAKI-1 renal) of 1.13 µM.
In the case of `O=C(N/N=C/c1cc(Cl)cc(Cl)c1[O-])c1ccccc1O.O=C(N/N=C/c1cc(Cl)cc(Cl)c1[O-])c1ccccc1O.[Fe+2]`, the TGI (CAKI-1 renal) is reported as 69.2 µM.
`CCN(CC)CCCNC(=O)c1ccccc1Nc1c(Cl)cccc1Cl` gave a TGI (DMS 114 small cell lung) of 26.2 µM, a TGI (M19-MEL melanoma) of 11 µM and a TGI (XF 498 CNS) of 9.71 µM.
With `NCCNc1ccc(NCCN)c2c1C(=O)c1c(O)ccc(O)c1C2=O` the TGI (PC-3 prostate) was 1.64 µM, the GI50 (MDA-MB-231 breast) was 0.146 µM and the TGI (MDA-MB-231 breast) was 2.14 µM and 0.621 µM. The TGI (CAKI-1 renal) was 0.879 µM and 0.123 µM, the GI50 (DU-145 prostate) was 0.0301 µM and the TGI (DU-145 prostate) was 0.398 µM and 2.56 µM. The GI50 (MDA-N) was 0.26 µM, the TGI (MDA-N) was 2.33 µM and 1.43 µM and the TGI (MCF7 breast) was 4.51 µM and 1.27 µM. For the same compound, the GI50 (NCI/ADR-RES ovarian) was 0.237 µM, the TGI (NCI/ADR-RES ovarian) was 1.39 µM and 2.84 µM and the GI50 (M19-MEL melanoma) was 0.104 µM. The TGI (M19-MEL melanoma) was 1.04 µM and 1.17 µM, the GI50 (HS 578T breast) was 0.225 µM and the TGI (HS 578T breast) was 0.851 µM and 0.902 µM. For the same compound, the TGI (XF 498 CNS) was 0.298 µM and the TGI (MDA-MB-435) was 2.37 µM.
`Cn1cc(-c2csc(-c3cn(CCCN4CCCCC4)c4ccc(Br)cc34)n2)c2cccnc21` gave a GI50 (PC-3 prostate) of 1.77 µM, a TGI (PC-3 prostate) of 3.22 µM and a GI50 (MDA-MB-231 breast) of 1.72 µM. The TGI (MDA-MB-231 breast) was 3.21 µM, the GI50 (DU-145 prostate) was 1.79 µM and the TGI (DU-145 prostate) was 3.21 µM. The GI50 (NCI/ADR-RES ovarian) was 1.92 µM, the TGI (NCI/ADR-RES ovarian) was 3.73 µM and the GI50 (HS 578T breast) was 2.09 µM. The TGI (HS 578T breast) was 5.41 µM, the GI50 (MDA-MB-435) was 1.74 µM and the TGI (MDA-MB-435) was 3.16 µM.
`O=[N+]([O-])c1cc(C(F)(F)F)cc2c1SC1=Nc3ccccc3CN12` showed a TGI (DMS 114 small cell lung) greater than 100 µM, a TGI (CAKI-1 renal) greater than 100 µM and a TGI (MCF7 breast) greater than 100 µM. For the same compound, the TGI (NCI/ADR-RES ovarian) was greater than 100 µM, the TGI (M19-MEL melanoma) was greater than 100 µM and the TGI (XF 498 CNS) was greater than 100 µM.
`CC(=O)C(C(=O)C(=O)Nc1cc(Cl)c(Cl)cc1Cl)c1csc(N)n1` (stereo not given) gave a TGI (DMS 114 small cell lung) greater than 100 µM, a TGI (CAKI-1 renal) greater than 100 µM and a TGI (M19-MEL melanoma) greater than 100 µM. It also gave a TGI (XF 498 CNS) greater than 100 µM.
Work on `O=c1[nH]c(Br)nc2n[nH]nc12` yielded a TGI (PC-3 prostate) greater than 100 µM, a TGI (MDA-MB-231 breast) greater than 100 µM and a TGI (CAKI-1 renal) greater than 100 µM. It also gave a TGI (DU-145 prostate) greater than 100 µM, a TGI (MDA-N) greater than 100 µM and a TGI (MCF7 breast) greater than 100 µM. For the same compound, the TGI (NCI/ADR-RES ovarian) was greater than 100 µM, the TGI (HS 578T breast) was greater than 100 µM and the TGI (MDA-MB-435) was greater than 100 µM.
Compound `C[N+]1(C)C/C(=C\C=C\c2ccccc2)C(=O)/C(=C/C=C/c2ccccc2)C1` has a TGI (DMS 114 small cell lung) of 10.9 µM, a TGI (PC-3 prostate) of 98.7 µM and a TGI (MDA-MB-231 breast) of 36.1 µM. For the same compound, the TGI (CAKI-1 renal) was greater than 82.3 µM, the TGI (DU-145 prostate) was 37.2 µM and the TGI (MDA-N) was 11.1 µM. It also gave a TGI (MCF7 breast) of 38.4 µM, a TGI (NCI/ADR-RES ovarian) greater than 100 µM and a TGI (M19-MEL melanoma) of 31.7 µM. For the same compound, the TGI (HS 578T breast) was greater than 61.4 µM, the TGI (XF 498 CNS) was 57.4 µM and the TGI (MDA-MB-435) was 20 µM.
`Nc1n[nH]c(N)n1` was tested, and the TGI (DMS 114 small cell lung) was 6880 µM, the TGI (PC-3 prostate) was greater than 10000 µM and the TGI (MDA-MB-231 breast) was greater than 10000 µM. For the same compound, the TGI (CAKI-1 renal) was 8860 µM, the TGI (DU-145 prostate) was greater than 10000 µM and the TGI (MDA-N) was greater than 10000 µM. It also gave a TGI (MCF7 breast) greater than 10000 µM, a TGI (NCI/ADR-RES ovarian) greater than 10000 µM and a TGI (M19-MEL melanoma) greater than 10000 µM. The TGI (HS 578T breast) was greater than 10000 µM, the TGI (XF 498 CNS) was 2750 µM and the TGI (MDA-MB-435) was greater than 10000 µM.
`CCCCCC1CC(C(C)=O)CN1c1ccc(F)cc1` (stereo not given) gave a TGI (DMS 114 small cell lung) of 62 µM, a TGI (M19-MEL melanoma) greater than 100 µM and a TGI (XF 498 CNS) of 52.5 µM.
In the case of `Oc1c(Cl)c(Cl)c(O)c(-c2cnc(-c3ncc(-c4c(O)c(Cl)c(Cl)c(O)c4Cl)s3)s2)c1Cl`, the TGI (PC-3 prostate) is reported as greater than 100 µM, the TGI (MDA-MB-231 breast) is reported as 42.8 µM and the TGI (CAKI-1 renal) is reported as 41.2 µM. It also gave a TGI (DU-145 prostate) greater than 100 µM, a TGI (MCF7 breast) of 52 µM and a TGI (NCI/ADR-RES ovarian) of 71.6 µM. For the same compound, the TGI (HS 578T breast) was 56.5 µM and the TGI (MDA-MB-435) was 47.7 µM.
In the case of `CC(=O)OC1(C)CC(C)C(=O)C(C(O)CC2CC(=O)NC(=O)C2)C1` (stereo not given), the TGI (PC-3 prostate) is reported as 0.0852 µM, the TGI (MDA-MB-231 breast) is reported as 0.196 µM and the TGI (DU-145 prostate) is reported as 0.449 µM and 0.264 µM. For the same compound, the TGI (MDA-N) was 0.204 µM and 0.215 µM, the TGI (MCF7 breast) was 0.0813 µM and the TGI (NCI/ADR-RES ovarian) was 0.744 µM and 0.341 µM. The TGI (MDA-MB-435) was 0.272 µM and 0.733 µM.
